Source: patent publication US10933009B2, “Formulations and methods for treating dermatological disorders and diseases” (VAPOGENIX, INC., priority 2011, dated 2021)

Test: Isoflurane remaining in uncapped vials, determined by weighing over time
Format: physicochemical
Description: In the Examples that follow, the stability of isoflurane in the described compositions was determined in two ways. First, the compositions were examined for the presence of phase separation at the macroscopic level. Secondly, isoflurane content of the compositions was determined by weighing the remaining isoflurane in the composition when they were left uncapped over time. Briefly, glass vials were filled with 5-10 ml of the composition vehicle and then weighed; one of them received only vehicle (i.e., no isoflurane) and served as control. The other vials received varying amounts of isoflurane. They were left uncapped in the hood. Over time, the vials were weighed to see if the isoflurane stayed in the composition or had evaporated. The amount evaporated over time in the vehicle control was subtracted from that in the isoflurane-containing composition.
The pure form of isoflurane is a volatile anesthetic. In order to assess the volatility of isoflurane, two vials received the indicated amounts of pure form isoflurane. The vials were placed in the chemical fume hood and left uncapped. The vials were weighed at the indicated times to determine the amount of evaporated isoflurane. As it is shown in the table below 0.7893 g isoflurane was evaporated within 3 hours, while 3.4825 g isoflurane took approximately 8 hrs to evaporate completely. These amounts of isoflurane are similar to the amounts of isoflurane that were used to prepare the isoflurane compositions in the Examples that follow.

[1] = pure form of isoflurane 0.7893 g, uncapped vial
[2] = pure form of isoflurane 3.4825 g, uncapped vial

time for isoflurane to evaporate (0.7893 g pure isoflurane, uncapped vial in fume hood): ≤ 3 h | time for isoflurane to evaporate completely (3.4825 g pure isoflurane, uncapped vial in fume hood): approximately 8 hrs | 0 h (% remaining iso) (pure form of isoflurane 0.7893 g, uncapped vial in fume hood): 100% | 0.25 h (% remaining iso) [1]: 85% | 1 h (% remaining iso) [1]: 52% | 2 h (% remaining iso) [1]: 14% | 3 h (% remaining iso) [1]: 0% | 0 h (% remaining iso) (pure form of isoflurane 3.4825 g, uncapped vial in fume hood): 100% | 0.25 h (% remaining iso) [2]: 96% | 1 h (% remaining iso) [2]: 86% | 2 h (% remaining iso) [2]: 75% | 3 h (% remaining iso) [2]: 62% | 5 h (% remaining iso) (pure form of isoflurane 3.4825 g, uncapped vial, 5 h): 38% | 7 h (pure form of isoflurane 3.4825 g, uncapped vial, 7 h): 13% | 8 h (pure form of isoflurane 3.4825 g, uncapped vial, 8 h): 3%
SMILES: FC(F)OC(Cl)C(F)(F)F (stereo not drawn) [isoflurane]
